# Test results from PMC6255377, “New 1-Aryl-3-Substituted Propanol Derivatives as Antimalarial Agents” (Molecules, 2009).
# Where a name gives a salt, the structure may show the parent alone.
# Tested on: P. falciparum 3D7 strain, chloroquine sensitive
# Assay: In vitro antimalarial activity screening (SYBR Green I micromethod)
# Format: cell-based
# Conditions: Plasmodium falciparum, 3D7; Table 1; 48 h incubation; mean of two experiments in triplicate; read-out: P. falciparum 3D7 IC50
# Method: The SYBR^©GreenI-based micromethod was followed for testing the antimalarial activity of the compounds. Erythrocytic stages of P. falciparum 3D7 strain, chloroquine sensitive, were maintained in RPMI 1640 culture medium supplemented with 0.5% Albumax II at 37 °C in an atmosphere with 5% CO2. […] Next, stock solutions of each compound were prepared in DMSO and diluted in RPMI medium in order to obtain concentrations from 10 to 0.01 µg/mL. […] All compounds and controls were placed in triplicate. The plate was incubated under the same conditions. After 48 h, the plate was removed from the incubator and frozen for at least 1 h at -70 °C and then thawed. Finally, 100 µL of SYBR^©GreenI in lysis buffer (0.2 µL/mL) was added per well and shaken for 5 minutes or until no precipitated erythrocytes were observed. The plate was left to stand in the dark for 1 h at room temperature. Fluorescence intensity (FI) for each well was measured. The background of the nonparasitized erythrocytes was subtracted from each well tested.
row,SMILES,IC50 [µM]
1,OC(CCN1CCN(c2cccc3c2OCCO3)CC1)c1csc2ccccc12 (centres unmarked) [Compound 26],3.56
2,O=C(CCN1CCN(c2cccc3cccnc23)CC1)c1csc2ccc(F)cc12 [Compound 4],> 20
3,OC(CCN1CCN(c2ccc3ccccc3n2)CC1)c1csc2ccccc12 (centres unmarked) [Compound 25],2.22
4,COc1ccccc1N1CCN(CCC(=O)c2csc3ccccc23)CC1 [Compound 3],> 20
5,OC(CCN1CCN(c2cccc3[nH]ccc23)CC1)c1csc2ccccc12 (centres unmarked) [Compound 17],6.99
6,COc1ccccc1N1CCN(CCC(O)c2csc3ccccc23)CC1 (centres unmarked) [Compound 13],1.07
7,OC(CCN1CCN(c2cccc3ccccc23)CC1)c1csc2ccccc12 (centres unmarked) [Compound 11],6.13
8,OC(CCN1CCN(c2cccc3[nH]ccc23)CC1)c1csc2ccc(F)cc12 (centres unmarked) [Compound 18],3.81
9,Cc1ccc2cccc(N3CCN(CCC(O)c4csc5ccccc45)CC3)c2n1 (centres unmarked) [Compound 22],0.66
10,OC(CCN1CCN(c2cccc3ncccc23)CC1)c1csc2ccccc12 (centres unmarked) [Compound 24],1.3
11,"COc1cccc(N2CCN(CCC(O)c3csc4ccc(F)cc34)CC2)c1 (centres unmarked) [Compound 16, 1-(5-fluorobenzo[b]thiophen-3-yl)-3-[4-(3-methoxyphenyl)piperazin-1-yl]propan-1-ol]",1.67
12,"O=C(CCN1CCCN(c2ccc([N+](=O)[O-])cc2)CC1)c1csc2ccccc12 [Compound 9, 1-(benzo[b]thiophen-3-yl)-3-[4-(4-nitrophenyl)-1,4-diazepan-1-yl]propan-1-one]",> 20
13,OC(CCN1CCN(c2cccc3c2OCCO3)CC1)c1csc2ccc(F)cc12 (centres unmarked) [Compound 27],0.9
14,Cc1ccc2cccc(N3CCN(CCC(=O)c4csc5ccccc45)CC3)c2n1 [Compound 5],> 20
15,COc1ccccc1N1CCN(CCC(=O)c2csc3ccc(F)cc23)CC1 [Compound 2],> 20
16,Oc1ccccc1N1CCN(CCC(O)c2csc3ccccc23)CC1 (centres unmarked) [Compound 14],13.7
17,OC(CCN1CCN(c2cccc3cccnc23)CC1)c1csc2ccc(F)cc12 (centres unmarked) [Compound 21],0.79
18,OC(CCN1CCN(c2ccc(Cl)cc2)CC1)c1csc2ccccc12 (centres unmarked) [Compound 19],5.65
19,OC(CCN1CCN(c2cccc3cccnc23)CC1)c1csc2ccccc12 (centres unmarked) [Compound 20],2.15
20,O=C(CCN1CCN(c2cccc3ccccc23)CC1)c1csc2ccc(F)cc12 [Compound 1],> 20

# Same assay, conditions: Plasmodium falciparum, 3D7; Table 2; 48 h incubation; mean of two experiments in triplicate; read-out: P. falciparum 3D7 IC50
row,SMILES,IC50 [µM]
1,COc1ccccc1N1CCN(CCC(O)c2ccc3ccccc3c2)CC1 (centres unmarked) [Compound 42],0.83
2,OC(CCN1CCN(c2ccc(Cl)cc2)CC1)c1ccsc1 (centres unmarked) [Compound 36],> 20
3,"COc1ccccc1N1CCN(CCC(O)c2ccc3cc(C)ccc3c2)CC1 (centres unmarked) [Compound 44, 1-(6-methylnapth-2-yl)-3-[4-(2-methoxyphenyl)piperazin-1-yl]propan-1-ol]",9.64
4,COc1ccccc1N1CCN(CCC(O)c2ccc(C)cc2C)CC1 (centres unmarked) [Compound 43],16.9
5,OC(CCN1CCN(c2ccc(Cl)cc2)CC1)c1ccccc1 (centres unmarked) [Compound 37],13
6,"O=[N+]([O-])c1ccc([C@@]2(NCCC(O)c3ccc4ccccc4c3)CCNC2)c(C(F)(F)F)c1 (stereo partly drawn) [Compound 45, 1-(2-naphthyl)-3-[3-(4-nitro-2-trifluoromethylphenyl)-(S)-pyrrolidin-3-ylamino]-propan-1-ol]",9.1
7,Cc1ccc(C(O)CCN2CCN(c3ccccc3O)CC2)c(C)c1 (centres unmarked) [Compound 46],18.2
8,COc1ccccc1N1CCN(CCC(O)c2ccccc2)CC1 (centres unmarked) [Compound 39],> 20

# Tested on: not given
# Assay: not given
# Conditions: not given
row,SMILES,melting point [°C]
1,"O=C(CCN1CCCN(c2ccc([N+](=O)[O-])cc2)CC1)c1csc2ccccc12 (as salt: hydrochloride) [Compound 9, 1-(benzo[b]thiophen-3-yl)-3-[4-(4-nitrophenyl)-1,4-diazepan-1-yl]propan-1-one]",121 to 123
